Results on seven compounds are retold here after article PMC3567251 (Biochemistry, 2012).

Experiment [1] addresses T1, PaMTADA (Pseudomonas aeruginosa, UniProt Q9HZ64). The format is biochemical.
The subject of experiment [2] is PaMTADA. The format is biochemical, Pseudomonas aeruginosa. Particulars: times higher than PfADA.
The subject of experiment [3] is PfADA. The note with it: substrate; ref Ting et al. [13]; cited from earlier work.
Experiment [4] concerns human ADA. Particulars: cited from earlier work.
The subject of experiment [5] is bovine ADA. Particulars: result in words; cited from earlier work.
Experiment [6] concerns the target PfADA. The note with it: cited from earlier work.
The target in experiment [7] is human ADA. The note with it: cited from earlier work; for inhibition of human ADA: result in words.
Experiment [8] concerns the target T2, PaMTADA (Pseudomonas aeruginosa, UniProt Q9HZ64).
T2 sequence (Q9HZ64 1-444): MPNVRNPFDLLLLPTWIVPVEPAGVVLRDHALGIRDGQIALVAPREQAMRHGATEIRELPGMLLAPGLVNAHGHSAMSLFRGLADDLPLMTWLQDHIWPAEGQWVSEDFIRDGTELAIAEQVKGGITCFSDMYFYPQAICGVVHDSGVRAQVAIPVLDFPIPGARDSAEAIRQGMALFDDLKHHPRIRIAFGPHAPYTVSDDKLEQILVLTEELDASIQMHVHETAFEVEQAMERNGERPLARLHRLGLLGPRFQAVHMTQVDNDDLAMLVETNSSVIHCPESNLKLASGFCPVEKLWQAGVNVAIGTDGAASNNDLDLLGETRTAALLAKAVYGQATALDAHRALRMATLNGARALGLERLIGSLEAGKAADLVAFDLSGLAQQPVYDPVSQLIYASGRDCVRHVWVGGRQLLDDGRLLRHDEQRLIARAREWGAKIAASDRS
Put plainly: Inhibition of PaMTADA activity in cell lysates. The format is biochemical, P. aeruginosa PAO1. Particulars: cell lysate, 50 nM inhibitor.

For experiment [9], the target named is T3, cellular PaMTADA activity (Pseudomonas aeruginosa, UniProt Q9HZ64).
T3 sequence (Q9HZ64 1-444): T2 sequence (Q9HZ64 1-444)
Put plainly: Inhibition of cellular PaMTADA. The class given is cell-based, P. aeruginosa PAO1.

Experiment [10] has as its system P. aeruginosa PAO1. Nature of the experiment: Growth of P. aeruginosa PAO1 with or without MTCF. The class given is cell-based. Particulars: up to 1 μM, 36 hours, 37 °C.
The subject of experiment [11] is PfADA. Put plainly: Inhibition of PfADA. The format is biochemical, Plasmodium falciparum. Particulars: times weaker than CF.
Experiment [12] has as its target T1, PaMTADA. The class given is biochemical. Particulars: times weaker than MTDCF.
[13] abbreviates: substrate, ref Tyler et al. [16].
[14] abbreviates: read-out: Ki* from slow-onset inhibition, Ki* values.
Setting [15] is: equilibrium dissociation constant.

Where “and” joins values, the source holds several entries; their conditions need not be identical. Equal values may be shown once. Entries after “also recorded” stand apart in the source; their conditions may differ. Read-outs that look alike come from different tables or passages of the source.

A word on the Km: it is the concentration of substrate that gives half-maximal velocity. Usually kcat stands for the maximal rate divided by the concentration of active sites. By Ki is commonly meant a measure of affinity in units of concentration, obtained from inhibition or displacement.

Consider 5′-methylthioadenosine [MTA], for which, in experiment [1] (MTA over adenosine), the “catalytic efficiency (kcat/Km) for MTA relative to adenosine” value is given as 40 fold. Also, the Km in experiment [1] (substrate, 25 °C, pH 7.4) is 1500 ± 300 nM; in [3], 170 ± 20 µM. The kcat is 24.6 s⁻¹ and 24.6 ± 0.8 s⁻¹ in experiment [1] (substrate, 25 °C, pH 7.4); 15.0 ± 0.9 s⁻¹ in experiment [3]; below 0.02 s⁻¹ in experiment [4] (setting [13]). Moreover, in experiment [2], the “catalytic efficiency of PaMTADA on MTA relative to PfADA” value stood at 160 times. Further, the “use as substrate by human ADA” value in experiment [4] (result in words) is “do not utilize”. Further, the “use as substrate by bovine ADA” value in [5] was “do not utilize”.
As to `OC[C@H]1O[C@@H](n2cnc3c2N=CNC[C@H]3O)[C@H](O)[C@@H]1O` [Coformycin (CF), (2R,3R,4S,5R)-2-((R)-8-hydroxy-7,8-dihydroimidazo[4,5-d][1,3]diazepin-3(6H)-yl)-5-(hydroxymethyl)tetrahydrofuran-3,4-diol, reference compound], the Ki is 0.08 ± 0.02 nM in experiment [6] (setting [14]) and 0.00011 ± 2e-05 µM in [7] (setting [14]).
Regarding `CSC[C@H]1O[C@@H](n2cnc3c2N=CNC[C@H]3O)[C@H](O)[C@@H]1O` [MTCF, 5′-methylthiocoformycin], the “degradation of MTA” value in experiment [8] is “completely blocked”. Also, the PaMTADA activity entry in experiment [9] (500 nM MTCF in LB medium plus 100 nM MTCF added to cell lysate) is reported as “All PaMTADA activity was inhibited”. Moreover, the “concentration of maximal inhibition” value in [9] (MTCF in LB medium) was determined as 10 nM. The “effect on cell growth based on OD600” value in experiment [10] was “no effect”. Besides, the Ki was 0.4 ± 0.1 nM in [6] (setting [14]) and above 10 µM in experiment [7] (setting [15]). Also, the “inhibition of human ADA” value in experiment [7] is recorded as “no significant inhibition; also recorded: no inhibitory effect; also recorded: no significant inhibitory effects”.
`CSC[C@H]1O[C@@H](n2cnc3c2N=CNC[C@H]3O)C[C@@H]1O` [MTDCF, 5′-methylthio-2′-deoxycoformycin]: the “binding affinity for PfADA relative to CF” value in [11] worked out at 9 times. Moreover, the Ki in experiment [6] (setting [14]) is 0.7 ± 0.2 nM; in [7] (setting [15]), above 10 µM. In addition, in [7], the “inhibition of human ADA” value is “no inhibitory effect”.
Consider `O[C@@H]1CNC=Nc2c1ncn2[C@H]1C[C@H](O)[C@@H](CSc2ccccc2)O1` [PhTDCF, 5′-phenylthio-2′-deoxycoformycin], for which the Ki in experiment [6] (setting [15]) was 60 ± 10 nM.
As to `CCCSC[C@H]1O[C@@H](n2cnc3c2N=CNC[C@H]3O)C[C@@H]1O` [PrTDCF, 5′-propylthio-2′-deoxycoformycin], in experiment [12], the “binding to PaMTADA relative to MTDCF” value is recorded as 8 times. Besides, the “binding affinity for PfADA relative to CF” value in experiment [11] is on record as 150 times. Also, the figures for the Ki in [6] (setting [15]) and in experiment [7] (setting [15]) were 12 ± 1 nM and above 10 µM, respectively.
On to `Nc1ncnc2c1ncn2[C@@H]1O[C@H](CO)[C@@H](O)[C@H]1O` [adenosine], for which the kcat is 17 ± 1 s⁻¹ in experiment [1] (substrate, 25 °C, pH 7.4); 1.8 ± 0.1 s⁻¹ in experiment [3]; 36 ± 1 s⁻¹ in experiment [4] (setting [13]). Moreover, the Km in [4] (setting [13]) was 22 ± 3 µM.
